Converted amounts (≈) assume the structure as drawn. Like-named read-outs stand apart in the source and are kept apart here.
Tests used:
M. tuberculosis 35801 = assay: MIC against M. tuberculosis strains, agar dilution; assay type: cell-based, Mycobacterium tuberculosis; settings: S. No. 02 Mt-, Middle Brook 7H10 + OADC, 37° C., 14-21 days
M. tuberculosis H37Rv = assay: MIC against M. tuberculosis strains, agar dilution; assay type: cell-based, Mycobacterium tuberculosis; settings: S. No. 04 Mt-, Middle Brook 7H10 + OADC, 37° C., 14-21 days
M. tuberculosis SGPGI = assay: MIC against M. tuberculosis strains, agar dilution; assay type: cell-based, Mycobacterium tuberculosis; settings: S. No. 07 Mt-, Middle Brook 7H10 + OADC, 37° C., 14-21 days
M. tuberculosis 50 = assay: MIC against M. tuberculosis strains, agar dilution; assay type: cell-based, Mycobacterium tuberculosis; settings: S. No. 12 Mt-, Middle Brook 7H10 + OADC, 37° C., 14-21 days
M. tuberculosis V-3093 = assay: MIC against M. tuberculosis strains, agar dilution; assay type: cell-based, Mycobacterium tuberculosis; settings: Middle Brook 7H10 + OADC, 37° C., 14-21 days
M. tuberculosis M-149 = assay: MIC against M. tuberculosis strains, agar dilution; assay type: cell-based, Mycobacterium tuberculosis; settings: Middle Brook 7H10 + OADC, 37° C., 14-21 days
M. avium ATCC 49601 = assay: MIC against MAC strains, agar dilution; assay type: cell-based, Mycobacterium avium; settings: S. No. 01 Ma-1, M. avium ATCC 49601, Middle Brook 7H10 + OADC, 37° C., 14-21 days
M avium ATCC 25291 = assay: MIC against MAC strains, agar dilution; assay type: cell-based, Mycobacterium avium; settings: S. No. 02 Ma-2, M avium ATCC 25291, Middle Brook 7H10 + OADC, 37° C., 14-21 days
M. avium ATCC 1723 = assay: MIC against MAC strains, agar dilution; assay type: cell-based, Mycobacterium avium; settings: S. No. 03 Ma-3, M. avium ATCC 1723, Middle Brook 7H10 + OADC, 37° C., 14-21 days
M. avium AIIMS = assay: MIC against MAC strains, agar dilution; assay type: cell-based, Mycobacterium avium; settings: S. No. 04 Ma-4, M. avium AIIMS, Middle Brook 7H10 + OADC, 37° C., 14-21 days
[1] = system: M. intracellulare ATCC 13950; assay: MIC against MAC strains, agar dilution; assay type: cell-based; settings: S. No. 06 Mi-1, M. intracellulare ATCC 13950, Middle Brook 7H10 + OADC, 37° C., 14-21 days
[2] = system: M. intracellulare ATCC 35761; assay: MIC against MAC strains, agar dilution; assay type: cell-based; settings: S. No. 07 Mi-2, M. intracellulare ATCC 35761, Middle Brook 7H10 + OADC, 37° C., 14-21 days
M. intracellulare B-78/3 = assay: MIC against MAC strains, agar dilution; assay type: cell-based; settings: S. No. 09 Mi-4, M. intracellulare B-78/3, Middle Brook 7H10 + OADC, 37° C., 14-21 days
[3] = system: M. avium intracellulare 356/97; assay: MIC against MAC strains, agar dilution; assay type: cell-based; settings: S. No. 10 Mai-1, M. avium intracellulare 356/97, Middle Brook 7H10 + OADC, 37° C., 14-21 days
[4] = system: M. avium intracellulare 540/96; assay: MIC against MAC strains, agar dilution; assay type: cell-based; settings: S. No. 12 Mai-4, M. avium intracellulare 540/96, Middle Brook 7H10 + OADC, 37° C., 14-21 days
[5] = system: M. avium intracellulare 926/98; assay: MIC against MAC strains, agar dilution; assay type: cell-based; settings: S. No. 14 Mai-6, M. avium intracellulare 926/98, Middle Brook 7H10 + OADC, 37° C., 14-21 days
[6] = system: M. avium intracellulare 559/97; assay: MIC against MAC strains, agar dilution; assay type: cell-based; settings: S. No. 15 Mai-7, M. avium intracellulare 559/97, Middle Brook 7H10 + OADC, 37° C., 14-21 days
[7] = system: M. avium intracellulare 18/98; assay: MIC against MAC strains, agar dilution; assay type: cell-based; settings: S. No. 16 Mai-9, M. avium intracellulare 18/98, Middle Brook 7H10 + OADC, 37° C., 14-21 days
[8] = system: M. avium intracellulare 19/97; assay: MIC against MAC strains, agar dilution; assay type: cell-based; settings: S. No. 17 Mai-10, M. avium intracellulare 19/97, Middle Brook 7H10 + OADC, 37° C., 14-21 days
E. faecalis 5B (VRE) = assay: MIC, agar incorporation method; assay type: cell-based; settings: Enterococcus faecalis; S. No. 19, E. faecalis 5B (VRE); read-out: MIC
H. influenzae 35056 = assay: MIC against Haemophilus strains; assay type: cell-based; settings: Haemophilus influenzae; s. No. 1, H. influenzae 35056; read-out: MIC
H. influenzae βIac = assay: MIC against Haemophilus strains; assay type: cell-based; settings: Haemophilus influenzae; s. No. 3, H. influenzae βIac; read-out: MIC
H. influenzae 1745 = assay: MIC against Haemophilus strains; assay type: cell-based; settings: Haemophilus influenzae; s. No. 9, H. influenzae 1745; read-out: MIC
H. influenzae 474 = assay: MIC against Haemophilus strains; assay type: cell-based; settings: Haemophilus influenzae; s. No. 11, H. influenzae 474; read-out: MIC
[9] = Mycobacterium tuberculosis, read-out: MIC
[10] = Mycobacterium avium, read-out: MIC

CC[C@H]1OC(=O)[C@H](C)[C@@H](O[C@H]2C[C@@](C)(OC)[C@@H](O)[C@H](C)O2)[C@H](C)[C@@H](O[C@@H]2O[C@H](C)C[C@H](N(C)C)[C@H]2O)[C@](C)(OC)C[C@@H](C)C(=O)[C@H](C)[C@@H](O)[C@]1(C)O [CLA]
MIC (M. tuberculosis 35801): >32 µg/mL
MIC (M. tuberculosis H37Rv): 32 µg/mL
MIC (M. tuberculosis SGPGI): 16 µg/mL
MIC (M. tuberculosis 50): 16 µg/mL
MIC (M. tuberculosis V-3093; S. No. 14 Mt-): 16 µg/mL
MIC (M. tuberculosis M-149; S. No. 15 Mt-): 16 µg/mL
MIC (M. avium ATCC 49601): <0.25 µg/mL
MIC (M avium ATCC 25291): 8.0 µg/mL
MIC (M. avium ATCC 1723): 1.0 µg/mL
MIC (M. avium AIIMS): 1.0 µg/mL
MIC [1]: 2.0 µg/mL
MIC [2]: 0.5 µg/mL
MIC (M. intracellulare B-78/3): 1.0 µg/mL
MIC [3]: 2.0 µg/mL
MIC [4]: >32 µg/mL
MIC [5]: 1.0 µg/mL
MIC [6]: 32 µg/mL
MIC [7]: 32 µg/mL
MIC [8]: 32 µg/mL

CC(=O)NC[C@H]1CN(c2ccc(N3CCN(c4ccc([N+](=O)[O-])s4)CC3)c(F)c2)C(=O)O1 [Compound No. 1, (S)—N-[[3-[3-Fluoro-4-[4-(5-nitro-2-thienyl)-1-piperazinyl]phenyl]-2-oxo-5-oxazolidinyl]methyl]acetamide]
MIC (E. faecalis 5B (VRE)): 0.25 µg/mL (≈ 0.539 µM)
MIC (H. influenzae 35056): 8 µg/mL (≈ 17.3 µM)
MIC (H. influenzae βIac): 8 µg/mL (≈ 17.3 µM)
MIC (H. influenzae 1745): 16 µg/mL (≈ 34.5 µM)
MIC (H. influenzae 474): 16 µg/mL (≈ 34.5 µM)
MIC (M. tuberculosis 35801; [9]): ≤ 0.125 µg/mL
MIC (M. tuberculosis SGPGI; [9]): 0.5 µg/mL
MIC (M. tuberculosis 50; [9]): 2 µg/mL
MIC (M. tuberculosis V-3093; Mycobacterium tuberculosis, V3093, S. No. 14 Mt-, read-out: MIC): ≤ 0.125 µg/mL
MIC (M. tuberculosis M-149; Mycobacterium tuberculosis, M149, S. No. 15 Mt-, read-out: MIC): 0.25 µg/mL
MIC (M. avium ATCC 49601; Mycobacterium avium, ATCC49601, read-out: MIC): < 0.125 µg/mL
MIC (M avium ATCC 25291; Mycobacterium avium, ATCC25291, read-out: MIC): 0.25 µg/mL
MIC (M. avium ATCC 1723; Mycobacterium avium, ATCC1723, read-out: MIC): 0.25 µg/mL
MIC (M. avium AIIMS; [10]): 0.25 µg/mL
MIC ([1]; Mycobacterium intracellulare, ATCC13950, read-out: MIC): 16 µg/mL
MIC ([2]; Mycobacterium intracellulare, ATCC35761, read-out: MIC): < 0.12 µg/mL
MIC (M. intracellulare B-78/3; Mycobacterium intracellulare, B78/3, read-out: MIC): 0.25 µg/mL
MIC [3, 10]: 0.25 µg/mL
MIC [4, 10]: 1 µg/mL
MIC [5, 10]: < 0.12 µg/mL
MIC [6, 10]: 0.25 µg/mL
MIC [7, 10]: 0.25 µg/mL
MIC [8, 10]: 0.25 µg/mL

CCc1cc(C(N)=S)ccn1 [ETH]
MIC (M. tuberculosis 35801): 2.0 µg/mL
MIC (M. tuberculosis H37Rv): ≦0.125 μg/ml
MIC (M. tuberculosis SGPGI): >32 µg/mL
MIC (M. tuberculosis 50): 32 µg/mL
MIC (M. tuberculosis V-3093; S. No. 14 Mt-): 2.0 µg/mL
MIC (M. tuberculosis M-149; S. No. 15 Mt-): >32 µg/mL
MIC (M. avium ATCC 49601): 4.0 µg/mL
MIC (M avium ATCC 25291): 32 µg/mL
MIC (M. avium ATCC 1723): 16 µg/mL
MIC (M. avium AIIMS): 16 µg/mL
MIC [1]: 0.5 µg/mL
MIC [2]: >32 µg/mL
MIC (M. intracellulare B-78/3): 4.0 µg/mL
MIC [3]: 8.0 µg/mL
MIC [4]: 32 µg/mL
MIC [5]: 16 µg/mL
MIC [6]: >32 µg/mL
MIC [7]: 32 µg/mL
MIC [8]: 16 µg/mL

NNC(=O)c1ccncc1 [INH]
MIC (M. tuberculosis 35801): 0.06 µg/mL
MIC (M. tuberculosis H37Rv): 0.125 µg/mL
MIC (M. tuberculosis SGPGI): >32 µg/mL
MIC (M. tuberculosis 50): >32 µg/mL
MIC (M. tuberculosis V-3093; S. No. 14 Mt-): 0.06 µg/mL
MIC (M. tuberculosis M-149; S. No. 15 Mt-): 8.0 µg/mL
MIC (M. avium ATCC 49601): >32 µg/mL
MIC (M avium ATCC 25291): >32 µg/mL
MIC (M. avium ATCC 1723): 32 µg/mL
MIC (M. avium AIIMS): >32 µg/mL
MIC [1]: >32 µg/mL
MIC [2]: 4.0 µg/mL
MIC (M. intracellulare B-78/3): 16 µg/mL
MIC [3]: 4.0 µg/mL
MIC [4]: 4.0 µg/mL
MIC [5]: 4.0 µg/mL
MIC [6]: >32 µg/mL
MIC [7]: 8.0 µg/mL
MIC [8]: 32 µg/mL

C[C@@H]1CN(c2c(F)c(N)c3c(=O)c(C(=O)O)cn(C4CC4)c3c2F)C[C@H](C)N1 [SPAR]
MIC (M. tuberculosis 35801): ≦0.125 μg/ml
MIC (M. tuberculosis H37Rv): ≦0.125 μg/ml
MIC (M. tuberculosis SGPGI): 4.0 µg/mL
MIC (M. tuberculosis 50): 4.0 µg/mL
MIC (M. tuberculosis V-3093; S. No. 14 Mt-): ≦0.125 μg/ml
MIC (M. tuberculosis M-149; S. No. 15 Mt-): 2.0 µg/mL
MIC (M. avium ATCC 49601): 0.5 µg/mL
MIC (M avium ATCC 25291): 32 µg/mL
MIC (M. avium ATCC 1723): 4.0 µg/mL
MIC (M. avium AIIMS): 8.0 µg/mL
MIC [1]: 16 µg/mL
MIC [2]: 2.0 µg/mL
MIC (M. intracellulare B-78/3): 2.0 µg/mL
MIC [3]: 2.0 µg/mL
MIC [4]: 4.0 µg/mL
MIC [5]: 2.0 µg/mL
MIC [6]: 2.0 µg/mL
MIC [7]: 2.0 µg/mL
MIC [8]: 1.0 µg/mL

Reference: patent publication US20060293307A1, “Oxazolidinone derivatives as antimicrobials” (priority 2002, published 2006)
